Read-outs that look alike come from different tables or passages of the source.
What was measured:
[1] = system: phosphorylated AKT Ser473 (pAKT S473), mTORC2 activity, PC3 cells; assay: mTOR target engagement assay, immunofluorescent cell-based, pAKT S473 readout (mTORC2 activity); settings: Homo sapiens
How it was run: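 After blocking, cells were stained overnight at 4 °C with anti-pAKT S473 antibody, then a fluorescent secondary; inhibition was read as reduced fluorescence intensity.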

[2] = system: phosphorylated 4E-BP1 Thr37/46 (p4E-BP1 Thr37/46), mTORC1 activity, PC3 cells; assay: mTOR target engagement assay, immunofluorescent cell-based, p4E-BP1 Thr37/46 readout (mTORC1 activity); settings: Homo sapiens, read-out: p4E-BP1 Thr37/46 IC50
How it was run: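 Cell-based immunofluorescence in PC3 cells: serially diluted compounds (0.25% DMSO, 5% FBS) applied for ninety minutes at 37° C before fixation and overnight 4° C staining of p4E-BP1 Thr37/46. Untreated DMSO wells set maximal phosphorylation; IC50 obtained by logistic fitting.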

[3] = PC-3, PC3 cells, compound treatment ninety minutes at 37° C.

| SMILES | IC50 [1, 3] [nM] | IC50 [2, 3] [nM] | other results |
| --- | --- | --- | --- |
| CC(=O)c1c([C@@H]2C[C@H]3CC[C@@H](C2)N3C(=O)c2nnc[nH]2)nc2c(-c3ccc(-c4cccc(F)c4)nc3)cnn2c1N [Compound 1.1.103, 1-(5-((1R,3r,5S)-8-(4H-1,2,4-triazole-3-carbonyl)-8-azabicyclo[3.2.1]octan-3-yl)-7-amino-3-(6-(3-fluorophenyl)pyridin-3-yl)pyrazolo[1,5-a]pyrimidin-6-yl)ethanone] | 1 to 100 | 1 to 100 | – |
| CCn1ccc(-c2ccc(-c3cnn4c(N)c(C(C)=O)c([C@@H]5C[C@H]6CC[C@@H](C5)N6C(=O)CO)nc34)cn2)n1 [Compound 1.1.137, 1-((1R,3s,5S)-3-(6-acetyl-7-amino-3-(6-(1-ethyl-1H-pyrazol-3-yl)pyridin-3-yl)pyrazolo[1,5-a]pyrimidin-5-yl)-8-azabicyclo[3.2.1]octan-8-yl)-2-hydroxyethanone] | 1 to 100 | 100 to 1000 | – |
| CC(=O)c1c([C@@H]2C[C@H]3CC[C@@H](C2)N3C(=O)[C@@H](C)O)nc2c(-c3ccc(-c4ccc(F)cc4F)nc3)cnn2c1N [Compound 1.1.168, (R)-1-((1R,3S,5S)-3-(6-acetyl-7-amino-3-(6-(2,4-difluorophenyl)pyridin-3-yl)pyrazolo[1,5-a]pyrimidin-5-yl)-8-azabicyclo[3.2.1]octan-8-yl)-2-hydroxypropan-1-one] | 100 to 1000 | 100 to 1000 | – |
| COCCOc1ccc(-c2ccc(-c3cnn4c(N)c(C5CC5)c([C@@H]5C[C@H]6CC[C@@H](C5)N6C(=O)c5nnc[nH]5)nc34)cn2)cc1 [Compound 4.14, ((1R,3s,5S)-3-(7-amino-6-cyclopropyl-3-(6-(4-(2-methoxyethoxy)phenyl)pyridin-3-yl)pyrazolo[1,5-a]pyrimidin-5-yl)-8-azabicyclo[3.2.1]octan-8-yl)(4H-1,2,4-triazol-3-yl)methanone] | 100 to 1000 | 100 to 1000 | – |
| NC(=O)N1[C@@H]2CC[C@H]1C[C@H](c1nc3c(-c4ccc(-c5ncc[nH]5)nc4)cnn3c(N)c1C1CC1)C2 [Compound 6.31, (1R,3s,5S)-3-(3-(6-(1H-imidazol-2-yl)pyridin-3-yl)-7-amino-6-cyclopropylpyrazolo [1,5-a]pyrimidin-5-yl)-8-azabicyclo[3.2.1]octane-8-carboxamide] | – | – | IC50 ([1]; PC-3, Table 6-1, PC3 cells): 1 to 100 nM; IC50 ([2]; PC-3, Table 6-1, PC3 cells): 1 to 100 nM |
| CC(=O)c1c([C@@H]2C[C@H]3CC[C@@H](C2)N3C(=O)c2nnc(C)[nH]2)nc2c(-c3ccc(-c4ccc(F)cc4)nc3)cnn2c1N [Compound 1.1.160, 1-(7-amino-3-(6-(4-fluorophenyl)pyridin-3-yl)-5-((1R,3s,5S)-8-(5-methyl-4H-1,2,4-triazole-3-carbonyl)-8-azabicyclo[3.2.1]octan-3-yl)pyrazolo[1,5-a]pyrimidin-6-yl)ethanone] | 1 to 100 | 100 to 1000 | – |
| CC(=O)c1c([C@@H]2C[C@H]3CC[C@@H](C2)N3C(=O)c2nnc[nH]2)nc2c(-c3ccc(-c4ncn(C)n4)nc3)cnn2c1N [Compound 1.1.88, 1-(5-((1R,3s,5S)-8-(4H-1,2,4-triazole-3-carbonyl)-8-azabicyclo[3.2.1]octan-3-yl)-7-amino-3-(6-(1-methyl-1H-1,2,4-triazol-3-yl)pyridin-3-yl)pyrazolo[1,5-a]pyrimidin-6-yl)ethanone] | 1 to 100 | 1 to 100 | – |
| CS(=O)(=O)c1c(C2CC3COCC(C2)N3C(=O)c2nc[nH]n2)nc2c(-c3ccc(-c4ccccc4)nc3)cnn2c1N (stereo not shown) [Compound 8.29, (7-(7-amino-6-(methylsulfonyl)-3-(6-phenylpyridin-3-yl)pyrazolo[1,5-a]pyrimidin-5-yl)-3-oxa-9-azabicyclo[3.3.1]nonan-9-yl)(1H-1,2,4-triazol-3-yl)methanone] | – | – | IC50 ([1]; PC-3, PC3 cells): 1 to 100 nM; IC50 ([2]; PC-3, PC3 cells): 1 to 100 nM |
| NC(=O)c1c([C@@H]2C[C@H]3CC[C@@H](C2)N3C(=O)c2nc[nH]n2)nc2c(-c3ccc(-c4ccccc4)nc3)cnn2c1N [Compound 8.40] | – | – | IC50 ([1]; PC-3, PC3 cells): 1 to 100 nM; IC50 ([2]; PC-3, PC3 cells): 1 to 100 nM |
| CC(=O)c1c([C@@H]2C[C@H]3CC[C@@H](C2)N3C(=O)CO)nc2c(-c3ccc(C(O)C(F)(F)F)nc3)cnn2c1N (stereo partly drawn) [Compound 7.67, 1-((1R,3s,5S)-3-(6-acetyl-7-amino-3-(6-(2,2,2-trifluoro-1-hydroxyethyl)pyridin-3-yl)pyrazolo[1,5-a]pyrimidin-5-yl)-8-azabicyclo[3.2.1]octan-8-yl)-2-hydroxyethanone] | – | – | IC50 ([1]; PC-3, PC3 cells): 1000 to 10000 nM; IC50 ([2]; PC-3, PC3 cells): 100 to 1000 nM |
| CC(=O)c1c([C@@H]2C[C@H]3CC[C@@H](C2)N3C(=O)c2nnc[nH]2)nc2c(-c3ccc(-c4cc(C)[nH]n4)nc3)cnn2c1N [Compound 1.1.95, 1-(5-((1R,3s,5S)-8-(4H-1,2,4-triazole-3-carbonyl)-8-azabicyclo[3.2.1]octan-3-yl)-7-amino-3-(6-(5-methyl-1H-pyrazol-3-yl)pyridin-3-yl)pyrazolo[1,5-a]pyrimidin-6-yl)ethanone] | 1000 to 10000 | 1000 to 10000 | – |
| CC(=O)c1c([C@@H]2C[C@H]3CC[C@@H](C2)N3C(=O)c2nnc[nH]2)nc2c(-c3ccc(-c4nnn(C)n4)nc3)cnn2c1N [Compound 1.1.63, 1-(5-((1R,3s,5S)-8-(4H-1,2,4-triazole-3-carbonyl)-8-azabicyclo[3.2.1]octan-3-yl)-7-amino-3-(6-(2-methyl-2H-tetrazol-5-yl)pyridin-3-yl)pyrazolo[1,5-a]pyrimidin-6-yl)ethanone] | 1 to 100 | 1 to 100 | – |
| CC(=O)c1c([C@@H]2C[C@H]3CC[C@@H](C2)N3C(=O)c2nnc[nH]2)nc2c(-c3ccc(-c4cnn(C)c4)nc3)cnn2c1N [Compound 1.1.149, 1-(5-((1R,3s,5S)-8-(4H-1,2,4-triazole-3-carbonyl)-8-azabicyclo[3.2.1]octan-3-yl)-7-amino-3-(6-(1-methyl-1H-pyrazol-4-yl)pyridin-3-yl)pyrazolo[1,5-a]pyrimidin-6-yl)ethanone] | 1 to 100 | 1 to 100 | – |
| CS(=O)(=O)c1c([C@@H]2C[C@H]3CC[C@@H](C2)N3C(=O)c2nnc[nH]2)nc2c(-c3ccc(C(N)=O)c(F)c3)cnn2c1N [Compound 3.155, 4-(5-((1R,3s,5S)-8-(4H-1,2,4-triazole-3-carbonyl)-8-azabicyclo[3.2.1]octan-3-yl)-7-amino-6-(methylsulfonyl)pyrazolo[1,5-a]pyrimidin-3-yl)-2-fluorobenzamide] | – | – | IC50 ([1]; PC-3, Table 3-1, PC3 cells): > 10000 nM; IC50 ([2]; PC-3, Table 3-1, PC3 cells): 1000 to 10000 nM |
| CC(=O)c1c(N2C3CCC2CN(C(=O)[C@@H](C)O)C3)nc2c(-c3ccc(-c4ccccc4)nc3)cnn2c1N [Compound 8.6, (2R)-1-(8-(6-acetyl-7-amino-3-(6-phenylpyridin-3-yl)pyrazolo[1,5-a]pyrimidin-5-yl)-3,8-diazabicyclo[3.2.1]octan-3-yl)-2-hydroxypropan-1-one] | – | – | IC50 ([1]; PC-3, PC3 cells): 100 to 1000 nM; IC50 ([2]; PC-3, PC3 cells): 1000 to 10000 nM |
| CC(=O)c1c([C@@H]2C[C@H]3CC[C@@H](C2)N3C(N)=O)nc2c(-c3ccc(-c4ccc(F)cc4F)nc3)cnn2c1N [Compound 1.1.169, (1R,3s,5S)-3-(6-acetyl-7-amino-3-(6-(2,4-difluorophenyl)pyridin-3-yl)pyrazolo[1,5-a]pyrimidin-5-yl)-8-azabicyclo[3.2.1]octane-8-carboxamide] | 1 to 100 | 1 to 100 | – |
| CC(=O)c1c([C@H]2C[C@H]3CC[C@@H](C2)N3C(=O)CO)nc2c(-c3ccc(-c4ccccc4)nc3)cnn2c1N [Compound 1.1.9, 1-((1R,3r,5S)-3-(6-acetyl-7-amino-3-(6-phenylpyridin-3-yl)pyrazolo[1,5-a]pyrimidin-5-yl)-8-azabicyclo[3.2.1]octan-8-yl)-2-hydroxyethanone] | 100 to 1000 | 100 to 1000 | – |
| CC(=O)c1c([C@@H]2C[C@H]3CC[C@@H](C2)N3C(=O)c2nnc(N)[nH]2)nc2c(-c3ccc(-c4ncc[nH]4)nc3)cnn2c1N [Compound 6.20, 1-(3-(6-(1H-imidazol-2-yl)pyridin-3-yl)-7-amino-5-((1R,3s,5S)-8-(5-amino-4H-1,2,4-triazole-3-carbonyl)-8-azabicyclo[3.2.1]octan-3-yl)pyrazolo[1,5-a]pyrimidin-6-yl)ethanone] | – | – | IC50 ([1]; PC-3, Table 6-1, PC3 cells): 1 to 100 nM; IC50 ([2]; PC-3, Table 6-1, PC3 cells): 1 to 100 nM |
| CC(=O)c1c([C@@H]2C[C@H]3CC[C@@H](C2)N3C(=O)c2nnc[nH]2)nc2c(-c3ccc([C@@H](C)O)nc3)cnn2c1N [Compound 7.14, 1-(5-((1R,3s,5S)-8-(4H-1,2,4-triazole-3-carbonyl)-8-azabicyclo[3.2.1]octan-3-yl)-7-amino-3-(6-((R)-1-hydroxyethyl)pyridin-3-yl)pyrazolo[1,5-a]pyrimidin-6-yl)ethanone] | 100 to 1000 | 100 to 1000 | – |
| CS(=O)(=O)c1c([C@@H]2C[C@H]3CC[C@@H](C2)N3C(=O)c2nc(C(F)(F)F)n[nH]2)nc2c(-c3ccc(-c4ccccc4)nc3)cnn2c1N [Compound 3.99, ((1R,3s,5S)-3-(7-amino-6-(methylsulfonyl)-3-(6-phenylpyridin-3-yl)pyrazolo[1,5-a]pyrimidin-5-yl)-8-azabicyclo[3.2.1]octan-8-yl)(3-(trifluoromethyl)-1H-1,2,4-triazol-5-yl)methanone] | – | – | IC50 ([1]; PC-3, Table 3-1, PC3 cells): 1000 to 10000 nM; IC50 ([2]; PC-3, Table 3-1, PC3 cells): 1000 to 10000 nM |
